Active and inactive are the calls of the source. The rule behind the calls is not given here.
Test system: Saccharomyces cerevisiae lifespan shortening, growth inhibition
Test: yeast lifespan shortening compounds, dose response (AID 849);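 note: yeast growth read as optical density after two days at 30 degrees C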

Compound | IC50
Oc1ccc(COCc2ccccc2)c2cccnc12 | 6.43 µM
COc1ccccc1N1CCN(Cc2cc(Br)c(O)c3ncccc23)CC1 | 15.8 µM
Cc1cc([N+](=O)[O-])ccc1-c1ccc(C2Nc3ccccc3C(=O)N2O)o1 (centres undefined) | > 100 µM (inactive)
Cc1nc2ccccc2c2nc3ccccc3n12 | 5.3 µM
O=C(Nc1nc(-c2ccccn2)cs1)c1ccc(Br)s1 | 9.04 µM
Cc1cc(-c2n[nH]c(=S)n2/N=C/c2cc([N+](=O)[O-])ccc2Cl)n[nH]1 | > 100 µM (inactive)
Cc1cc(C)cc(NS(=O)(=O)c2cnc(Cl)c(Cl)c2)c1 | 47.5 µM
CN1CCN(CC(=O)N2CCn3c4c(c5cc(C6CCCCC6)ccc53)CCCC42)CC1 (centres undefined) | > 100 µM (inactive)
Cc1cc(N2CCN(c3cccc(C)c3C)CC2)nc(-c2ccccc2)n1 | 35.4 µM
Oc1cccc2ccc(/C=C/c3cccs3)nc12 | 37.5 µM
COc1ccc(OC)c(C2CC(=O)N3CN(c4cccc(Cl)c4)CSC3=C2C#N)c1 (centres undefined) | > 100 µM (inactive)
CS(=O)(=O)N1CCN(C(=O)c2ccccc2F)CC1 | > 100 µM (inactive)
Cc1ccc2nc(-c3ccc(NS(=O)(=O)c4ccc(F)c(F)c4)cc3)sc2c1 | > 100 µM (inactive)
COc1ccc(NCc2nc3ccccc3n2CCOc2ccc(C)cc2)cc1 | 31.2 µM
Cc1ccc(O)c(C(=O)CC(=O)c2cccc(F)c2)c1 | > 100 µM (inactive)
O=c1[nH][nH]cc1C=Nc1ccccc1O | > 100 µM (inactive)
CCc1cc2c(=O)[nH]c(-c3ccccn3)nc2s1 | 19.2 µM
O=C(C1=C(O)/C(=C/c2ccc(O)cc2)CCC1)C(F)(F)F | > 100 µM (inactive)
CCOC(=O)c1c(-c2ccc(-c3ccccc3)cc2)csc1NC(=O)CCN1CCOCC1 | 19.1 µM
COc1ccccc1-n1c(=O)oc2ccc(Cl)cc2c1=O | > 100 µM (inactive)
CCOC(=O)C(=NC(C)CC)NNc1ccc(Br)cc1 (centres undefined) | 8.41 µM
O=[N+]([O-])c1ccccc1-c1cc(-c2cc(Cl)ccc2O)n[nH]1 | > 100 µM (inactive)

Compound | IC50
COc1cccc(-n2nnnc2S(C)(=O)=O)c1 | 9.54 µM
OCc1ccc(O)c2ncccc12 | 32.2 µM
CCCCN(CCCC)C(=S)N/N=C/c1c(C)[nH]n(-c2ccccc2)c1=O | 38.9 µM
CSC1=NSC2=NC(=O)/C(=C\c3coc4ccccc4c3=O)C(=N)N12 | > 100 µM (inactive)
CCOCCCNC(=O)c1ccc(Br)cc1 | > 100 µM (inactive)
Cc1nc2c(F)c(F)c(C(F)(F)F)c(F)c2[nH]1 | > 100 µM (inactive)
c1ccc(-n2c(-c3ccco3)nnc2-c2ccco2)cc1 | > 100 µM (inactive)
O=[N+]([O-])c1ccc(O)c(/C=N/Nc2ccccn2)c1 | 31 µM
COCC(C)OC(=O)/C(C#N)=C\c1coc2ccc(C)cc2c1=O (centres undefined) | > 100 µM (inactive)
CCN1/C(=C/c2ccc3cc(C)ccc3[n+]2CC)Sc2ccccc21 | 4.48 µM
CC1/C(=N/O)CC(c2ccccc2)N(C)C1c1ccccc1 (centres undefined) | > 100 µM (inactive)
CCCCCCN1N=C(C)C(C(=O)c2ccc(Cl)cc2)C1=O (centres undefined) | 16.4 µM
CC(=O)n1cc(C(C[N+](=O)[O-])SCCN)c2ccccc21 (centres undefined) | 8.5 µM
Cc1ccc(C(=O)OCn2ncc(Cl)c(Cl)c2=O)cc1 | 3.73 µM
O=C(Oc1c(Cl)cc(Cl)c2cccnc12)c1cccc([N+](=O)[O-])c1 | 2.95 µM
Cc1[nH]n(-c2ccccc2)c(=O)c1/C=N/Nc1nncc(-c2ccccc2)n1 | 19.3 µM
Cc1cc(C)c2c(N=NN3CCOCC3)[nH]nc2n1 | 19.9 µM
CSC1=NSC2=NC(=O)/C(=C/c3coc4ccccc4c3=O)C(=N)N12 | 44.1 µM
Cc1ccc(-c2[nH]nc(N)c2N=Nc2ccccc2C)cc1 | > 100 µM (inactive)
COC1=C(N)C(=O)c2nc(-c3nc(C(=O)O)c(C)c(-c4ccc(OC)c(OC)c4O)c3N)ccc2C1=O | 0.212 µM
NC(N)=N/N=C/c1ccc(OCc2ccc(Cl)cc2)cc1 | 48.4 µM
CC(=O)NC(CCS(C)(=O)=O)C(=O)Nc1ccc2c(c1)OCO2 (centres undefined) | > 100 µM (inactive)

From PubChem BioAssay AID849 (SRMLSC, 2007)
